Data published in ChEMBL document CHEMBL1201862, “PubChem BioAssay data set” (2004).
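Values below derive from 48-hour exposures of cells grown in 96-well plates, with endpoints linearly interpolated between the two concentrations bracketing the appropriate inhibition level. GI50 is the concentration that inhibits growth by half.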 Calls of active or inactive are those of the source. Cut-off read from the data, not from the text of the source: active = GI50 up to about 1.1 µM and inactive = higher.

Legend:
Assay in all cases: DTP human tumour cell line panel, 48 h
SK-MEL-2 = system: SK-MEL-2
SF-268 = system: SF-268
KM12 = system: KM12
HCC 2998 = system: HCC 2998
LOX IMVI = system: LOX IMVI
SNB-19 = system: SNB-19
A549 = system: A549
CAKI-1 = system: CAKI-1
UACC-62 = system: UACC-62
SW-620 = system: SW-620
SF-539 = system: SF-539
NCI-H23 = system: NCI-H23
TK-10 = system: TK-10
UO-31 = system: UO-31
M14 = system: M14
NCI-H226 = system: NCI-H226

Structure (SMILES)	GI50 (SK-MEL-2)	GI50 (SF-268)	GI50 (KM12)	GI50 (HCC 2998)	GI50 (LOX IMVI)	GI50 (SNB-19)	GI50 (A549)	GI50 (CAKI-1)	GI50 (UACC-62)	GI50 (SW-620)	GI50 (SF-539)	GI50 (NCI-H23)	GI50 (TK-10)	GI50 (UO-31)	GI50 (M14)	GI50 (NCI-H226)
O=C1CC2CCCCC2=C1O (stereo not given)	> 100 µM (inactive)	> 100 µM (inactive)	> 100 µM (inactive)	> 100 µM (inactive)	> 100 µM (inactive)	> 100 µM (inactive)	> 100 µM (inactive)	> 100 µM (inactive)	> 100 µM (inactive)	> 100 µM (inactive)	> 100 µM (inactive)	> 100 µM (inactive)	> 100 µM (inactive)	> 100 µM (inactive)	–	–
Cc1cc2c(cc1C)[n+]([O-])c(C(=O)/C=C/c1ccccc1Cl)c(C)[n+]2[O-]	27.5 µM (inactive)	27.9 µM (inactive)	31.8 µM (inactive)	17.1 µM (inactive)	31 µM (inactive)	43.2 µM (inactive)	33.9 µM (inactive)	21.1 µM (inactive)	18.3 µM (inactive)	35.1 µM (inactive)	19.9 µM (inactive)	19.3 µM (inactive)	25.4 µM (inactive)	18 µM (inactive)	24.1 µM (inactive)	> 100 µM (inactive)
O=[N+]([O-])c1ccccc1S(=O)(=O)c1ccccc1	> 100 µM (inactive)	> 100 µM (inactive)	> 100 µM (inactive)	> 100 µM (inactive)	> 100 µM (inactive)	–	> 100 µM (inactive)	–	54.7 µM (inactive)	> 100 µM (inactive)	> 100 µM (inactive)	89.7 µM (inactive)	> 100 µM (inactive)	28.2 µM (inactive)	> 100 µM (inactive)	88.1 µM (inactive)
COc1cc(C2C(Cl)C(=O)N2n2cnc3ccccc3c2=O)cc(OC)c1OC (stereo not given)	> 100 µM (inactive)	> 100 µM (inactive)	41.9 µM (inactive)	> 100 µM (inactive)	57.4 µM (inactive)	> 100 µM (inactive)	> 100 µM (inactive)	67.1 µM (inactive)	37.9 µM (inactive)	60.3 µM (inactive)	–	> 100 µM (inactive)	> 100 µM (inactive)	> 100 µM (inactive)	84.5 µM (inactive)	> 100 µM (inactive)
O=S1(=O)OCCOS(=O)(=O)C1Br	> 100 µM (inactive)	> 100 µM (inactive)	> 100 µM (inactive)	> 100 µM (inactive)	–	64.9 µM (inactive)	> 100 µM (inactive)	> 100 µM (inactive)	52.2 µM (inactive)	> 100 µM (inactive)	> 100 µM (inactive)	> 100 µM (inactive)	> 100 µM (inactive)	39.1 µM (inactive)	> 100 µM (inactive)	< 0.01 µM (active)
CC(=O)Nc1ccc(-c2nnc(SCC(=O)Nc3cccc([N+](=O)[O-])c3)o2)cc1	18.3 µM (inactive)	16.1 µM (inactive)	17.3 µM (inactive)	–	8.77 µM (inactive)	–	17.5 µM (inactive)	13.7 µM (inactive)	11.5 µM (inactive)	13.4 µM (inactive)	15.8 µM (inactive)	5.13 µM (inactive)	23.6 µM (inactive)	13.2 µM (inactive)	16.1 µM (inactive)	10.8 µM (inactive)
COC(=O)CCC(=O)Nc1ccc(Cl)cc1C	> 47.8 µM (inactive)	–	15.5 µM (inactive)	> 100 µM (inactive)	> 25.8 µM (inactive)	> 100 µM (inactive)	> 22 µM (inactive)	23.4 µM (inactive)	14.3 µM (inactive)	> 100 µM (inactive)	> 100 µM (inactive)	> 71 µM (inactive)	> 100 µM (inactive)	–	> 100 µM (inactive)	> 52.6 µM (inactive)
OC(c1ccccc1)C1CC2C=CC1C2 (stereo not given)	> 100 µM (inactive)	> 100 µM (inactive)	> 100 µM (inactive)	–	> 100 µM (inactive)	> 100 µM (inactive)	> 100 µM (inactive)	> 100 µM (inactive)	> 100 µM (inactive)	> 100 µM (inactive)	> 100 µM (inactive)	> 100 µM (inactive)	> 100 µM (inactive)	> 100 µM (inactive)	> 100 µM (inactive)	–
COC(=O)CCC1(NS(=O)(=O)c2ccc(C)cc2)CCC(C(C)(C)C)CC1 (stereo not given)	17.3 µM (inactive)	> 10 µM (inactive)	13.1 µM (inactive)	14.6 µM (inactive)	17.3 µM (inactive)	12.2 µM (inactive)	13.6 µM (inactive)	13.6 µM (inactive)	11.9 µM (inactive)	16.7 µM (inactive)	13.3 µM (inactive)	9.71 µM (inactive)	18 µM (inactive)	3.3 µM (inactive)	12.7 µM (inactive)	–
OC12c3ccccc3C1CCCCCCCCCC21OCCCO1 (stereo not given)	–	> 100 µM (inactive)	> 100 µM (inactive)	> 100 µM (inactive)	> 100 µM (inactive)	> 100 µM (inactive)	> 100 µM (inactive)	–	> 100 µM (inactive)	> 100 µM (inactive)	> 100 µM (inactive)	> 100 µM (inactive)	> 100 µM (inactive)	> 100 µM (inactive)	> 100 µM (inactive)	> 100 µM (inactive)
OC(CCNC12CC3CC(CC(C3)C1)C2)c1ccccc1 (stereo not given)	> 100 µM (inactive)	> 100 µM (inactive)	88.9 µM (inactive)	68.7 µM (inactive)	–	> 100 µM (inactive)	> 100 µM (inactive)	> 100 µM (inactive)	> 100 µM (inactive)	> 100 µM (inactive)	> 100 µM (inactive)	> 100 µM (inactive)	> 100 µM (inactive)	43.9 µM (inactive)	40.4 µM (inactive)	> 100 µM (inactive)
CN1C(=O)CCC1(O)C1C=CC=CC1 (stereo not given)	–	> 100 µM (inactive)	> 100 µM (inactive)	> 100 µM (inactive)	> 100 µM (inactive)	> 100 µM (inactive)	> 100 µM (inactive)	> 100 µM (inactive)	> 100 µM (inactive)	> 100 µM (inactive)	> 100 µM (inactive)	> 100 µM (inactive)	> 100 µM (inactive)	> 100 µM (inactive)	> 100 µM (inactive)	> 100 µM (inactive)
C/C=C/CC(C)[C@@H](O)[C@H](NC)C(=O)O (stereo not given in full)	> 100 µM (inactive)	> 100 µM (inactive)	> 100 µM (inactive)	> 100 µM (inactive)	> 100 µM (inactive)	> 100 µM (inactive)	> 100 µM (inactive)	> 100 µM (inactive)	> 100 µM (inactive)	> 100 µM (inactive)	> 100 µM (inactive)	> 100 µM (inactive)	> 100 µM (inactive)	> 100 µM (inactive)	> 100 µM (inactive)	–
N=C(N)SCCc1cn2ccccc2n1	> 100 µM (inactive)	> 100 µM (inactive)	> 100 µM (inactive)	> 100 µM (inactive)	> 100 µM (inactive)	> 100 µM (inactive)	> 100 µM (inactive)	> 100 µM (inactive)	–	> 100 µM (inactive)	> 100 µM (inactive)	> 100 µM (inactive)	> 100 µM (inactive)	> 100 µM (inactive)	> 100 µM (inactive)	> 100 µM (inactive)
CCCCCCCC(=O)OC[C@H](C[As](=O)(O)O)OC(=O)CCCCCCC	–	1.82 µM (inactive)	–	14.6 µM (inactive)	–	14.3 µM (inactive)	2.86 µM (inactive)	–	9.29 µM (inactive)	7.26 µM (inactive)	5.13 µM (inactive)	14.3 µM (inactive)	–	2.27 µM (inactive)	12.3 µM (inactive)	5.9 µM (inactive)
Cc1cc(C)c2c(c1)CSCc1cc(C)cc(C)c1-2	21.3 µM (inactive)	38.7 µM (inactive)	42.6 µM (inactive)	35.2 µM (inactive)	17.3 µM (inactive)	44.8 µM (inactive)	30.9 µM (inactive)	26.2 µM (inactive)	23.4 µM (inactive)	71.8 µM (inactive)	–	36.9 µM (inactive)	> 100 µM (inactive)	39.4 µM (inactive)	22.6 µM (inactive)	38.8 µM (inactive)
COc1ccc(OC)c(/C=C(/C#N)c2ccccc2)c1	5.82 µM (inactive)	34 µM (inactive)	10 µM (inactive)	> 10 µM (inactive)	16.1 µM (inactive)	52 µM (inactive)	13.2 µM (inactive)	35.1 µM (inactive)	5.32 µM (inactive)	6.46 µM (inactive)	28.2 µM (inactive)	23.5 µM (inactive)	28.4 µM (inactive)	–	33.3 µM (inactive)	26.9 µM (inactive)
O=C(N/C(=C\c1ccc([N+](=O)[O-])cc1)c1nc2ccccc2[nH]1)c1ccccc1	> 100 µM (inactive)	> 100 µM (inactive)	> 100 µM (inactive)	> 100 µM (inactive)	–	> 100 µM (inactive)	93.5 µM (inactive)	–	> 100 µM (inactive)	> 100 µM (inactive)	> 100 µM (inactive)	> 100 µM (inactive)	> 100 µM (inactive)	21.9 µM (inactive)	> 100 µM (inactive)	–
COc1cc2c(cc1OC)C(N(C)C)C(c1ccccc1)=C2Cl (stereo not given)	18.7 µM (inactive)	–	23.2 µM (inactive)	–	17.4 µM (inactive)	37.9 µM (inactive)	–	–	–	16.2 µM (inactive)	20.5 µM (inactive)	16.9 µM (inactive)	37.5 µM (inactive)	16.9 µM (inactive)	19.8 µM (inactive)	21.9 µM (inactive)
